Data: patent publication US7691864B2, “Anti-hypertensive composition and methods of treatment” (University of Florida, priority 1994, dated 2010)

Tested on: Male Sprague Dawley rats
Assay: Blood pressure and heart rate in carotid-catheterized rats after I.P. dosing
Type: in vivo, rat
Method: Male Sprague Dawley rats averaging 400 g were anesthetized with sodium pentobarbital, 50 mg/kg I.P. The animals' neck and shoulder areas were shaved and prepped for surgery. The carotid artery was isolated and clamped using an arterial hemostat. A nick was made in the artery and a segment of PE-50 intramedic tubing was inserted, directed towards the heart and tied into place. The tubing was then flushed with heparin (100 μ/ml) and skin tunneled to the shoulder area. A stylet was inserted into the tip of the catheter to prevent blood leakage. The external incisions were closed with 11 mm staples.
The animals were fasted and allowed to recover overnight. The following morning, the stylet was removed and the tubing flushed with the heparin solution. The rats were placed into individual cages and hooked up to a transducer/oscillograph. The animals were allowed to stabilize in the cages for one-half hour before any recordings began. The oscillograph was then turned on and baseline recordings of the heart rate and blood pressure were made. The rats were given diethylhomospermine in sterile normal saline at a dose of 121.9 or 10 mg/kg I.P. The animals' heart rate and blood pressure were evaluated at t=0, 0.5 (or 1), 3, 5, 10, 15 and 20 minutes post-drug.

[1] = 10 mg/kg I.P., 10 min post-drug
[2] = 10 mg/kg I.P., 15 min post-drug
[3] = 10 mg/kg I.P., 20 min post-drug
[4] = 10 mg/kg I.P., time 0 min (baseline)
[5] = 121.9 mg/kg I.P., 0.5 min post-drug
[6] = 121.9 mg/kg I.P., 3 min post-drug
[7] = 121.9 mg/kg I.P., 5 min post-drug
[8] = 121.9 mg/kg I.P., 10 min post-drug
[9] = 121.9 mg/kg I.P., 15 min post-drug
[10] = 121.9 mg/kg I.P., 20 min post-drug
[11] = 121.9 mg/kg I.P., time 0 min (baseline)

With CCNCCCCNCCCCNCCCCNCC [diethylhomospermine] as the molecule, how does the “Blood Pressure” value (10 mg/kg I.P., 1 min post-drug) read?
The value was 105/95.

And the “Heart Rate” value (10 mg/kg I.P., 1 min post-drug)?
The value was 426 b.p.m.

What about the “Blood Pressure” value (10 mg/kg I.P., 3 min post-drug) of the same molecule?
Its value is 110/99.

And the “Heart Rate” value (10 mg/kg I.P., 3 min post-drug)?
Its value is 426 b.p.m.

What about the “Blood Pressure” value (10 mg/kg I.P., 5 min post-drug) of the same molecule?
The value was 110/98.

And the “Heart Rate” value (10 mg/kg I.P., 5 min post-drug)?
Its value is 426 b.p.m.

What about the “Blood Pressure” value [1] of the same molecule?
Its value is 105/97.

What about the “Heart Rate” value [1] of the same molecule?
The value was 402 b.p.m.

What about the “Blood Pressure” value [2] of the same molecule?
Its value is 105/97.

And the “Heart Rate” value [2]?
The value was 390 b.p.m.

And the “Blood Pressure” value [3]?
The value was 107/100.

And the “Heart Rate” value [3]?
The value was 402 b.p.m.

What about the “Blood Pressure” value [4] of the same molecule?
Its value is 135/120.

What about the “Heart Rate” value [4] of the same molecule?
The value was 414 b.p.m.

What about the “Blood Pressure” value [5] of the same molecule?
Its value is 75/68.

What about the “Heart Rate” value [5] of the same molecule?
Its value is 468 b.p.m.

What about the “Blood Pressure” value [6] of the same molecule?
Its value is 52/44.

What about the “Heart Rate” value [6] of the same molecule?
The value was 402 b.p.m.

What about the “Blood Pressure” value [7] of the same molecule?
The value was 51/42.

And the “Heart Rate” value [7]?
Its value is 354 b.p.m.

And the “Blood Pressure” value [8]?
Its value is 42/40.

And the “Heart Rate” value [8]?
The value was 336 b.p.m.

And the “Blood Pressure” value [9]?
The value was 39/34.

What about the “Heart Rate” value [9] of the same molecule?
Its value is 354 b.p.m.

And the “Blood Pressure” value [10]?
The value was 30/28.

What about the “Heart Rate” value [10] of the same molecule?
The value was 348 b.p.m.

What about the “Blood Pressure” value [11] of the same molecule?
The value was 130/120.

And the “Heart Rate” value [11]?
The value was 432 b.p.m.
